Experimental data: US4912107A, “Pyrrolocarbazole derivatives, compositions containing them, and methods for using them” (Goedecke Aktiengesellschaft, priority 1988, dated 1990)

Molecular target: protein kinase C
Test: enzyme assay of protein kinase C activated with phosphatidylserine and diacylglycerol
Type: biochemical
Details: protein kinase C activated with phosphatidylserine and iacylglycerol; according to EP-OS 0 255 126; read-out: concentration giving 50% inhibition of protein kinase C
Procedure: Compounds of the present invention are potent inhibitors of protein kinases, such as protein kinase C. […] The experiment was carried out according to EP-OS 0 255 126 (inhibition of protein kinase C).

IC50: 580 nM
SMILES: CCn1c2ccccc2c2c3c(c(-c4ccccc4Cl)cc21)C(=O)NC3=O [Example 2a, 4-(2-Chlorophenyl)-6-ethyl-1,2,3,6-tetrahydro-1,3-dioxopyrrolo[3,4-c]carbazole]
